Experimental data from ChEMBL document CHEMBL4673218, “Kojyl cinnamate esters are peroxisome proliferator-activated receptor α/γ dual agonists” (Bioorg Med Chem, 2018).
pEC50, pKi: −log10 of the molar value. Active and inactive are the calls of the source. The calls are words filed in the database; no cut-off is given here.

Assays:
[1] = biological target: T1, PPAR alpha/gamma (Homo sapiens) (UniProt P37231+Q07869); experiment: Agonist activity at PPARalpha/PPARgamma in human AT-MSC cells assessed as upregulation of ACACB mRNA at 10 uM incubated for 3 days by qRT-PCR analysis; type: cell-based; conditions: Adipose tissue derived mesenchymal stem cell, filed as agonist, time 3.0 day
[2] = biological target: T1, PPAR alpha/gamma (Homo sapiens); experiment: Agonist activity at PPARalpha/PPARgamma in human AT-MSC cells assessed as upregulation of HMGCS2 mRNA at 10 uM incubated for 3 days by qRT-PCR analysis; type: cell-based; conditions: Adipose tissue derived mesenchymal stem cell, filed as agonist, time 3.0 day
[3] = biological target: T1, PPAR alpha/gamma (Homo sapiens); experiment: Agonist activity at PPARalpha/PPARgamma in human NHEK cells assessed as upregulation of HMGCS2 mRNA at 10 uM incubated for 3 days by qRT-PCR analysis; type: cell-based; conditions: filed as agonist, time 3.0 day
[4] = biological target: T1, PPAR alpha/gamma (Homo sapiens); experiment: Agonist activity at PPARalpha/PPARgamma in human NHEK cells assessed as upregulation of FADS2 mRNA at 10 uM incubated for 3 days by qRT-PCR analysis; type: cell-based; conditions: filed as agonist, time 3.0 day
[5] = biological target: T1, PPAR alpha/gamma (Homo sapiens); experiment: Agonist activity at PPARalpha/PPARgamma in human NHEK cells assessed as upregulation of ACACB mRNA at 10 uM incubated for 3 days by qRT-PCR analysis; type: cell-based; conditions: time 3.0 day
[6] = tested on: Adipose tissue derived mesenchymal stem cell; experiment: Induction of adipogenesis in human AT-MSC cells assessed as increase in intracellular lipid accumulation at 30 uM in IDX medium incubated for 5 days by Oil Red O staining based inverted phase microscopy relative to IDX control; type: functional; conditions: time 5.0 day
[7] = Induction of adipogenesis in human AT-MSC assessed as adiponectin secretion in IDX medium incubated for 5 days by ELISA; type: functional; conditions: adipose tissue derived mesenchymal stem cell
[8] = biological target: T2, Peroxisome proliferator-activated receptor alpha (Homo sapiens, UniProt Q07869); experiment: (§1) Binding affinity to human recombinant PPARalpha by Cheng-Prusoff equation based competitive binding TR-FRET assay
T2 sequence (Q07869 whole entry): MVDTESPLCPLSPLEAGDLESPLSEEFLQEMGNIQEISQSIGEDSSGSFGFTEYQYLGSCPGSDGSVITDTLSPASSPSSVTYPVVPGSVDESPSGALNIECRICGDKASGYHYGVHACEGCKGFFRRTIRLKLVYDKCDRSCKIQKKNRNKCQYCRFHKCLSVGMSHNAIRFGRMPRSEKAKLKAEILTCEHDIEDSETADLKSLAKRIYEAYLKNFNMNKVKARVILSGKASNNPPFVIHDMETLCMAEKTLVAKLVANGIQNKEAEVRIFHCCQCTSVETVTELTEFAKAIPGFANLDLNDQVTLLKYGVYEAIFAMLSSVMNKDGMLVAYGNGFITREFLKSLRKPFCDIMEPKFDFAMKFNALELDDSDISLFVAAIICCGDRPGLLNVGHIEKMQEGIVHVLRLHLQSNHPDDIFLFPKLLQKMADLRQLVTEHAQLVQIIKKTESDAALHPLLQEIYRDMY

[9] = biological target: T3, Peroxisome proliferator-activated receptor alpha (Homo sapiens) (UniProt Q07869); experiment: as §1; conditions: filed as agonist
T3 sequence (whole entry): T2 sequence (Q07869 whole entry)

[10] = biological target: T1, PPAR alpha/gamma (Homo sapiens); experiment: Agonist activity at PPARalpha/PPARgamma in human AT-MSC cells assessed as upregulation of FABP4 mRNA at 10 uM incubated for 3 days by qRT-PCR analysis; type: cell-based; conditions: Adipose tissue derived mesenchymal stem cell, filed as agonist, time 3.0 day
[11] = biological target: T1, PPAR alpha/gamma (Homo sapiens); experiment: Agonist activity at PPARalpha/PPARgamma in human NHEK cells assessed as upregulation of FASN mRNA at 10 uM incubated for 3 days by qRT-PCR analysis; type: cell-based; conditions: time 3.0 day
NHEK [12] = experiment: Inhibition of UVB-induced PTGS2 mRNA in human NHEK cells at 10 uM incubated for 24 hrs by qRT-PCR analysis; type: functional, cell-based
[13] = biological target: T1, PPAR alpha/gamma (Homo sapiens); experiment: Agonist activity at PPARalpha/PPARgamma in human AT-MSC cells assessed as upregulation of SCD1 mRNA at 10 uM incubated for 3 days by qRT-PCR analysis; type: cell-based; conditions: Adipose tissue derived mesenchymal stem cell, filed as agonist, time 3.0 day
NHEK [14] = experiment: Inhibition of UVB-induced MMP1 level in human NHEK cells at 10 uM incubated for 24 hrs by ELISA; type: functional, cell-based
[15] = biological target: T1, PPAR alpha/gamma (Homo sapiens); experiment: Agonist activity at PPARalpha/PPARgamma in human NHEK cells assessed as upregulation of FADS1 mRNA at 10 uM incubated for 3 days by qRT-PCR analysis; type: cell-based; conditions: filed as agonist, time 3.0 day
[16] = biological target: T4, Glucocorticoid receptor (Homo sapiens) (UniProt P04150); experiment: Binding affinity to human glucocorticoid receptor at 30 uM by competitive binding based TR-FRET assay
T4 sequence (whole entry): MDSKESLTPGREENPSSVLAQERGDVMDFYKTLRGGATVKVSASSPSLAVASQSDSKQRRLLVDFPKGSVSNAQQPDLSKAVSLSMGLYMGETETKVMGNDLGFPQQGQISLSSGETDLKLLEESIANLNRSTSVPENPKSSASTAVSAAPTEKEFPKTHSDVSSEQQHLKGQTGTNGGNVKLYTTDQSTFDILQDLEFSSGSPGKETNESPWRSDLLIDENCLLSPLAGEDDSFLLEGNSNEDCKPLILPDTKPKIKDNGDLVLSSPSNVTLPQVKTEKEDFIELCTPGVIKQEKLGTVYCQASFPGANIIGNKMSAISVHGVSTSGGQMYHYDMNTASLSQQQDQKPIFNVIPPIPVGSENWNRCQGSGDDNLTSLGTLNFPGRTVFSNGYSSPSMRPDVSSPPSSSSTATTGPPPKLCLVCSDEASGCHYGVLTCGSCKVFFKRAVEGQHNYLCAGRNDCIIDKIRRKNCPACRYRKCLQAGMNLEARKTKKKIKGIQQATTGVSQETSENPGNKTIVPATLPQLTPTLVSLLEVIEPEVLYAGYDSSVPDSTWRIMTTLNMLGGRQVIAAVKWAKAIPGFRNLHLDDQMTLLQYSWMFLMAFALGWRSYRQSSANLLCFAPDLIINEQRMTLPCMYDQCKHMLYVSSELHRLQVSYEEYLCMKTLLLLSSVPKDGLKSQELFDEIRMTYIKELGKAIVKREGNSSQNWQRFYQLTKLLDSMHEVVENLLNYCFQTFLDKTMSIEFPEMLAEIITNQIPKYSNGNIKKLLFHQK

[17] = biological target: T1, PPAR alpha/gamma (Homo sapiens); experiment: Agonist activity at PPARalpha/PPARgamma in human AT-MSC cells assessed as upregulation of FASN mRNA at 10 uM incubated for 3 days by qRT-PCR analysis; type: cell-based; conditions: Adipose tissue derived mesenchymal stem cell, filed as agonist, time 3.0 day
[18] = biological target: T3, Peroxisome proliferator-activated receptor alpha (Homo sapiens); experiment: Binding affinity to human recombinant PPARalpha at 30 uM by competitive binding based TR-FRET assay relative to control; conditions: filed as agonist
[19] = biological target: T1, PPAR alpha/gamma (Homo sapiens); experiment: Agonist activity at PPARalpha/PPARgamma in human AT-MSC cells assessed as upregulation of FADS2 mRNA at 10 uM incubated for 3 days by qRT-PCR analysis; type: cell-based; conditions: Adipose tissue derived mesenchymal stem cell, filed as agonist, time 3.0 day
[20] = biological target: T1, PPAR alpha/gamma (Homo sapiens); experiment: Agonist activity at PPARalpha/PPARgamma in human AT-MSC cells assessed as upregulation of HMGCR mRNA at 10 uM incubated for 3 days by qRT-PCR analysis; type: cell-based; conditions: Adipose tissue derived mesenchymal stem cell, filed as agonist, time 3.0 day
[21] = biological target: T1, PPAR alpha/gamma (Homo sapiens); experiment: Agonist activity at PPARalpha/PPARgamma in human NHEK cells assessed as upregulation of HMGCR mRNA at 10 uM incubated for 3 days by qRT-PCR analysis; type: cell-based; conditions: time 3.0 day

T1 sequence (P37231 whole entry, looked up, one chain of several): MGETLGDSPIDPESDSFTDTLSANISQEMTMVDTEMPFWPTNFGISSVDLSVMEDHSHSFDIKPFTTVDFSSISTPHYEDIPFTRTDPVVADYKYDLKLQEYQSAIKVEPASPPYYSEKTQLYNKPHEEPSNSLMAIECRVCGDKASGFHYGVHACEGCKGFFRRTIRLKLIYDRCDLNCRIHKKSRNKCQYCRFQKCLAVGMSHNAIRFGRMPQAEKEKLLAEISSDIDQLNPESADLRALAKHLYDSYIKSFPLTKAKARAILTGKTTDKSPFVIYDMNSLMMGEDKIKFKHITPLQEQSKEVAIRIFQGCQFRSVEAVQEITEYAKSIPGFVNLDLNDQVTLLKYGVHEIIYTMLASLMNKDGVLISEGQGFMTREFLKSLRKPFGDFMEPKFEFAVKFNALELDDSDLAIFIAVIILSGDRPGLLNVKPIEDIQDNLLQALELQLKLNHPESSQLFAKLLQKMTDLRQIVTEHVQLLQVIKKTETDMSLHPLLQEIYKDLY

## COc1ccc(OC)c(/C=C/C(=O)OCc2cc(=O)c(O)co2)c1
[1]
  Activity: Active
[2]
  Activity: Active
[3]
  Activity: Active
[4]
  Activity: Active
[5]
  Activity: inactive
[6]
  Activity: Active
[7]
  pEC50: 5.12
[8]
  pKi: 5.02
[9]
  Activity: Dose-dependent effect
[10]
  Activity: Active
[11]
  Activity: inactive
NHEK [12]
  inhibition: Active
[13]
  Activity: Active
NHEK [14]
  inhibition: Active
[15]
  Activity: Active
[16]
  Activity: inactive
[17]
  Activity: Active
[18]
  Activity: 59%
[19]
  Activity: Active
[20]
  Activity: Active
[21]
  Activity: inactive
